# “Also recorded” adds a separate entry of the source. Like-named read-outs stand apart in the source and are kept apart here. Marks after values point to notes of the source that are not given here.
# What was measured:
# cardiac surgery patients = conditions: cited from earlier work; for Result: hemodynamic effects, amrinone vs milrinone: n 44, elective cardiac surgery, bolus amrinone 0.75 mg/kg or milrinone 25 μg/kg
# [1] = test system: patient, mitral valve and tricuspid valve repair; assay: inhaled prostacyclin prior to extra-corporal circulation in a patient; type: in vivo, human
# From the text: This is to be contrasted with changes observed in Doppler hepatic venous flow after inhaled prostacyclin in a patient scheduled to undergo mitral valve and tricuspid valve repair. […] This was associated with a reduction in mean pulmonary artery pressure from 36 to 29 mmHg, pulmonary vascular resistance index from 589 to 267 dynes.s/cm^5/m^2 and an increase in cardiac index from 1.9 to 2.4 L/min/m^2. Heart rate and mean arterial pressure decreased respectively from 63 to 52 beats/min and from 76 to 64 mmHg.
# [2] = test system: person operated under cardiopulmonary bypass; assay: inhaled prostacyclin at weaning from bypass in a person; type: in vivo, human; conditions: weaned with inhaled prostacyclin (75 μg)
# Description: In another case, a person was operated for a third time under cardiopulmonary bypass. […] Pre-operatively, they had abnormal right ventricular diastolic function with a lower systolic or S wave on the hepatic venous Doppler signal. After bypass (duration 157 min), they were weaned with inhaled prostacyclin (75 μg) and they left the operating room with noradrenaline at 2.5 μg/min and nitroglycerine at 0.4 μg/kg/min.
# [3] = intravenous; animal studies; cited from earlier work
# [4] = test system: heart transplant candidate; conditions: inhaled prostacyclin group; cited from earlier work
# [5] = test system: coronary care unit patients hospitalized for an exacerbation of chronic heart failure; conditions: cited from earlier work
# [6] = test system: porcine subjects undergoing cardiopulmonary bypass
# [7] = test system: rings of porcine pulmonary artery with endothelium; assay: vascular reactivity studies in organ chambers after cardiopulmonary bypass; type: in vivo, Landrace swine; conditions: for KCL: amplitude of the contraction to KCl (60 mmol/L) / Dose PE: concentration of PE used to obtain 50% of contraction to KCl: mean +/- SEM
# Description: After 60 minutes of reperfusion, swine were sacrificed and pulmonary arteries harvested. After contraction to phenylephrine, pulmonary arteries endothelium-dependent relaxations to bradykinin (Gq coupled) and acetylcholine (Gi coupled) were studied in standard organ chamber experiments.
# Less than 10 minutes after “en bloc” excision, the heart was removed and the primary pulmonary artery was dissected. Branches of second degree pulmonary arteries were isolated and dissected free of connective and adventitial tissue and divided into rings (4 mm wide; 16 rings per animal). All rings were placed in organ chambers (Emka technologies Inc, Paris, France) filled with 20 mL modified Krebs-bicarbonate solution continuously heated at 37° C. and oxygenated with a carbogen mixture (95% O2 and 5% CO2). The rings were suspended between 2 metal stirrups with the upper 1 connected to an isometric force transducer connected to a signal amplifier and then allowed to stabilize for 30 minutes. Data were collected with a biological signal data acquisition software (IOX 1.700; Emka technologies Inc, Paris, France). Each arterial ring was stretched to the optimal point of its active length-tension curve (3.5 g) as determined by measuring the contraction to potassium chloride (KCl) 60 mmol/L at different levels of stretch (data not shown). The maximal contraction of rings was then obtained with addition of potassium chloride (KCl 60 mmol/L). After obtention of a plateau, all baths were washed twice with modified Krebs bicarbonate solution and indomethacin ([…]; to exclude production of endogenous prostanoids) was added in each bath. After 45 minutes of stabilisation, phenylephrine (range 2 {acute over} 10-7 mol/L to 3 {acute over} 10-6 mol/L) was added to obtain a contraction averaging 50% of the maximal contraction to KCl.
# The NO-mediated relaxation pathway was studied by constructing concentration-response curves to acetylcholine (ACh, 10-9 to 10-5 mol/L; an agonist of M2 receptors coupled to Gi-proteins) and to bradykinin (BK, 10-12 to 10—6 mol/L; an agonist of B2 receptors coupled to Gq-proteins).
# At the end of the experiment, endothelium-independent relaxations were studied with the use of 10-5 mol/L sodium nitroprusside (SNP), a nitric oxide donor
# All values are expressed as the mean±standard error of the mean (SEM). Contractions to phenylephrine are expressed as a percentage of the maximal contraction to KCl (60 mmol/L). Relaxations are expressed as the percentage of the maximal contraction to phenylephrine for each ring. Two-way repeated analysis of variance (ANOVA) were performed to compare each point of the concentration-response curves between control rings and CPB rings. Student's t test for paired/unpaired observations was used for the comparison of the pulmonary artery pressures and the intravascular cAMP content. Statistical analysis was performed with the computer software S.A.S (Instr Inc. Cary, N.C., USA). A P-value less than 0.05 was considered statistically significant.
# [8] = test system: person in cardiogenic shock; assay: inhaled milrinone in a person in cardiogenic shock (echocardiographic and hemodynamic monitoring); type: in vivo, human; conditions: 5 mg milrinone through inhalation
# From the text: Finally, the cardiac index increased from 1.8 to 2.8 L.min/m^2.
# [9] = test system: patients with pulmonary hypertension; conditions: inhaled milrinone; cited from earlier work
# [10] = n 120, low CO after cardiac surgery
compound,measurement,setting,value
CC(CCc1ccc(O)cc1)NCCc1ccc(O)c(O)c1 (stereo not drawn) [dobutamine],Result: overall comparison milrinone and dobutamine,cardiac surgery patients; [10],comparable
same,Result: increases in cardiac index,"cardiac surgery patients; n 120, low CO after cardiac surgery, dobutamine 10 to 20 μg/kg/min vs milrinone",group D had greater
Nc1cc(-c2ccncc2)c[nH]c1=O [amrinone],"Result: hemodynamic effects, amrinone vs milrinone",cardiac surgery patients,produced similar
CCCCC[C@H](O)/C=C/[C@@H]1[C@H]2C/C(=C/CCCC(=O)O)O[C@H]2C[C@H]1O [prostacyclin],vasoactive drugs used post-operatively,[1],no vasoactive drugs used
same,difficult separation from bypass,[1]; cardiopulmonary bypass time of 138 min,no difficult separation from bypass
same,heart rate,[1]; decreased from 63,52 beats/min
same,mean arterial pressure,[1]; decreased from 76,64 mmHg
same,cardiac index,[1]; increase from 1.9,2.4 L/min/m^2
same,Doppler hepatic venous flow systolic or S wave,"[1]; negative value before, within 18 minutes",became positive and less pronounced
same,mean pulmonary artery pressure,[1]; reduction from 36,29 mmHg
same,pulmonary vascular resistance index,[1]; reduction from 589,267 dynes.s/cm^5/m^2
same,vasoactive drugs in the post-operative period,[2],No vasoactive drugs were required
same,mean arterial pressure after bypass,[2]; decreased from 78,67 mmHg
same,cardiac index after bypass,[2]; increase from 2.3,3.3 L/min/m^2
same,heart rate after bypass,[2]; increased from 66,85 beats/min
same,pulmonary vascular resistance indexed after bypass,[2]; reduction from 242,121 dynes.s/cm^5/m^2
same,hepatic venous flow signal,[2]; right ventricular diastolic waveform still abnormal,did not change significantly
same,half-life,[3],2 to 3 min
same,cardiac output increased by,[4],11%
"[N]=O [NO, nitric oxide]",Result: right ventricular ejection fraction,"cardiac surgery patients; n 45, pulmonary hypertension, Group 3 40 ppm NO compared to group 1 (milrinone) and 2 (20 ppm NO)",Group 3 (40 ppm)higher right
Cc1[nH]c(=O)c(C#N)cc1-c1ccncc1 [milrinone],median number of days hospitalized for cardiovascular causes within 60 days,[5]; intravenous milrinone vs placebo,no difference
same,in-hospital mortality,"[5]; intravenous milrinone, vs 2.3% placebo, P=0.19",3.8%
same,60-day mortality,"[5]; intravenous milrinone, vs 8.9% placebo, P=0.41",10.3%
same,Result: wean from bypass,"cardiac surgery patients; n 32, LVEF ≦ 35%, PCWP ≧ 20 mmHg pre-bypass, bolus 50 ug/kg, perfusion 0.5 ug/kg/min, vs 5/15 placebo",All patients with milrinone
same,"Result: hemodynamic effects, amrinone vs milrinone",cardiac surgery patients,produced similar
same,Result: overall comparison milrinone and dobutamine,cardiac surgery patients; [10],comparable
same,Result: decreases in mean pulmonary capillary wedge pressure,"cardiac surgery patients; n 120, low CO after cardiac surgery, milrinone 50 μg/kg and perfusion 0.5 μg/kg/min vs dobutamine",Group M had greater
same,systemic vascular resistance after bolus,[6]; in vivo,did not fall
same,heart rate,"[6]; in vivo, iv",increased
same,systemic vascular resistance after bolus,"[6]; in vivo, iv",important decrease
same,heart rate,"[6]; inhaled milrinone vs CPB, at 15, 45 and 75 minutes per CPB and 30 and 60 minutes post CPB, p<0.05, FIG. 6",significantly lower
same,mean arterial pressure following administration of the bolus,"[6]; inhaled milrinone, bolus of 60-90 mg/kg via nebulizer during 15 minutes preceding CPB, p<0.05, FIG. 2",significant decrease
same,KCL: amplitude of the contraction to KCl (60 mmol/L),[7]; Mil INH group,4.8 +/− 0.28
same,Dose PE: concentration of PE used to obtain 50% of contraction to KCl,"[7]; Mil INH group, p<0.01 vs intravenous milrinone, p<0.05 vs control",greater
same,Dose PE: concentration of PE used to obtain 50% of contraction to KCl,"[7]; Mil INH group, p<0.01 vs intravenous milrinone, p<0.05 vs control, listed as Mil INH","8.3 +/− 0.93*,**"
same,Dose PE: concentration of PE used to obtain 50% of contraction to KCl,[7]; Mil IV group,4.1 +/− 0.3
same,KCL: amplitude of the contraction to KCl (60 mmol/L),[7]; Mil IV group,4.0 +/− 0.3
same,endothelium-dependent relaxation to BK,"[7]; inhaled milrinone compared to all other groups, P<0.05, FIG. 10",increased relaxation; also recorded: preventive effect
same,CPB-induced decrease of endothelium-dependent relaxation to ACh,"[7]; inhaled milrinone prior to CPB, FIG. 9",completely reversed; also recorded: preventive effect
same,endothelium-dependent relaxation to BK: preventive effect on endothelial function,"[7]; intravenous milrinone, FIG. 10",not seen
same,right atrial pressure (RAP) after administration,[8]; decrease from 17,7 mm Hg
same,mean pulmonary arterial pressure after administration,[8]; decrease from 33,24 mm Hg
same,mean arterial pressure after administration,[8]; decrease from 92,77 mm Hg
same,heart rate after administration,[8]; increase from 72,84 beats/minutes
same,pulmonary vascular resistance,[9],reduce pulmonary vascular resistance; also recorded: lowered pulmonary vascular resistances
